{"source": "paper PMC11189555", "about": "“Aryl amino acetamides prevent Plasmodium falciparum ring development via targeting the lipid-transfer protein PfSTART1” (Nature Communications, 2024)", "key": {"[1]": {"system": "PF3D7_1351000 (START-domain protein)", "test": "Solvent-PISA (solvent proteome profiling, DIA-MS)", "assay_type": "binding, Plasmodium falciparum", "details": "100 µM W-991 vs DMSO; Fig S4E", "procedure": "(§1) The experiment was carried out in three biological replicates. Saponin-liberated mature parasite stages (30-42 hpi) were resuspended in PBS and lysed by 3x flash freeze/thawing using liquid N2, followed by 10 x mechanical sheering with a 29 G needle-syringe, and soluble protein isolation through ultracentrifugation (100,000 g; 20 min, 4 °C). Protein lysate was exposed to the 100 µM of W-991 or the vehicle control (DMSO) for 3 min and subsequently incubated with varying concentration of the solvent mixture ‘AEF’ (50% Acetone, 50% Ethanol, 0.1% Formate) to a final concentration of 7-25% (v/v) with 2% intervals, for 20 min at 37 °C at 800 rpm on a Thermomixer (Eppendorf). Denatured protein was pelleted through centrifugation (4 °C, 18,000 g, 20 min), and the soluble phase was recovered and pulled together in equivolume ratios into two samples; Gradient 1 ‘G1’: 7-15% EAF and Gradient 2 ‘G2’: 17-25% EAF, respectively.\n(§2) Sample preparation for proteomic analysis was carried out using modified SP4 glass beads protocol. In brief, protein was reduced (20 mM TCEP, 100 mM TEAB) for 20 min at 55 °C and alkylated with 55 mM 2-Chloroacetamide for 30 min, followed by precipitation on beads in 80% ACN with a 6 min centrifugation at 21,000 g and 3 x wash with 80% Ethanol. Dried beads were subjected to sequential digestion with LysC (3 h, 1:50 ratio w/w) and trypsin (overnight, 1:50 ratio w/w), and the resulting digest was acidified with 1% TFA and desalted on T3 C18 stage tips (Affinisep) according to manufacturer’s specifications.\n(§3) Peptide samples were analysed on Orbitrap Eclipse Tribrid mass spectrometer that is interfaced with the Neo Vanquish liquid chromatography system. Samples were loaded onto a C18 fused silica column (inner diameter 75 µm, OD 360 µm × 15 cm length, 1.6 µm C18 beads) packed into an emitter tip (IonOpticks) using pressure-controlled loading with a maximum pressure of 1,500 bar, that is interfaced to the mass spectrometer using Easy nLC source and electro sprayed directly into the mass spectrometer. Sample separation was carried out on a linear gradient 5% to 17% of solvent-B at 400 nL /min flow rate (solvent-B: 80% (by vol) acetonitrile) for 23 min and 17% to 25% solvent-B for 10 min, 25% to 34% for 11 min and 34% to 90% solvent-B for 1 min which was maintained at 90% B for 3 min and washed the column at 2% solvent-B for another 3 min comprising a total of 63 min run with a 45 min gradient in a data independent acquisition (DIA) mode MS scan parameters included a full scan using an orbitrap and 120,000 resolution, standard AGC target and maximum injection time of 30 ms. A second DIA experiment used the orbitrap at […] resolution, a precursor scan range of 200-1200 m/z with a normalized AGC target of 3000% and 45 variable isolation windows. Peptides were isolated and fragmented using stepped […] (HCD) at 24%, 28% and 32% normalized collision energy. Peptide identification was carried out in DIA-NN 1.8.1 using standard settings and an in silico spectral library generated from Uniprot P. falciparum (UP000001450) and human (UP000005640) reference proteomes. The peptide length range was set to 7-30 amino acids. […] Subsequently, the differential abundance analysis (moderated t-test, based on limma package[81]) of P. falciparum proteins was conducted in the R environment (R version 4.2.0; R Studio Version 2023.12.1 + 402) using precursor normalised MaxLFQ data for proteins detected with ≥2 peptides. […]"}, "[2]": {"system": "PF3D7_1463500 (START-domain protein)", "test": "Solvent-PISA (solvent proteome profiling, DIA-MS)", "assay_type": "binding, Plasmodium falciparum", "details": "100 µM W-991 vs DMSO; Fig S4E", "procedure": "as §1, §2, §3"}, "[3]": {"system": "merozoites-associated armadillo repeats protein (MAAP, PF3D7_1035900)", "test": "Solvent-PISA (solvent proteome profiling, DIA-MS)", "assay_type": "binding, Plasmodium falciparum", "details": "100 µM W-991 vs DMSO; 7-25% AEF", "procedure": "as §1, §2, §3"}, "[4]": {"system": "ring-infected erythrocyte surface antigen (RESA3, PF3D7_1149200)", "test": "Solvent-PISA (solvent proteome profiling, DIA-MS)", "assay_type": "binding, Plasmodium falciparum", "details": "100 µM W-991 vs DMSO; 7-25% AEF", "procedure": "as §1, §2, §3"}, "[5]": {"system": "signal recognition particle subunit (SRP19, PF3D7_1216300)", "test": "Solvent-PISA (solvent proteome profiling, DIA-MS)", "assay_type": "binding, Plasmodium falciparum", "details": "100 µM W-991 vs DMSO; 7-25% AEF", "procedure": "as §1, §2, §3"}, "[6]": {"system": "P. falciparum NF54 gametocytes fed to An. stephensi", "test": "Standard membrane feeding assay (London School of Hygiene and Tropical Medicine)", "assay_type": "in vivo, Plasmodium falciparum", "details": "W-991 1, 50, 100 nM; second insectary; Fig S7C-D", "procedure": "These assays were performed at the Walter and Eliza Hall Institute and at the London School of Hygiene and Tropical Medicine using slightly different approaches which are described in the Supplementary Information. […]\nGametocyte culturing and standard membrane feeding assay (London School of Hygiene and Tropical Medicine). P. falciparum NF54 gametocytes were prepared for blood-feeding to mosquitoes according to the method described by 13, with some slight modifications. Briefly, gametocyte cultures seeded at 2% overall parasitaemia and 4% haematocrit were maintained at 37 °C for 17 days with daily media changes.\nGametocyte functional viability was assessed by ex-flagellation assay at day 14 post induction, observed by light microscopy. An. stephensi (SD500 strain) were reared as […]\nGametocyte aliquots from a single NF54 culture, produced as above, were incubated […]\nor culture medium only (no -drug control) from day 14 until day 17 when SMFA was carried out. Fresh drug -containing media was provided each day during this exposure.\nPots of 70 -80 two- to five-day old female An. stephensi mosquitoes were allowed to feed on 500 µL of the respective culture+drug mixture, presented to each pot in a pre - heated 3D -printed water channel membrane feeder 15, until fully fed. […]"}}, "data": [{"smiles": "CC(C)(Nc1ccc(Cl)c(S(=O)(=O)N2CCOCC2)c1)C(=O)Nc1ccc(F)c(Cl)c1", "note": "[W-991]", "values": [{"measurement": "abundance/stability of the protein on compound treatment", "setting": "[1]", "value": "not affected"}, {"measurement": "abundance/stability of the protein on compound treatment", "setting": "[2]", "value": "not affected"}, {"measurement": "soluble protein level in the presence of compound (stabilisation)", "setting": "[3]", "value": "drug-stabilised"}, {"measurement": "soluble protein level in the presence of compound (stabilisation)", "setting": "[4]", "value": "drug-stabilised"}, {"measurement": "soluble protein level in the presence of compound (stabilisation)", "setting": "[5]", "value": "drug-stabilised"}, {"measurement": "transmission to mosquitoes", "setting": "[6]", "value": "reduction in transmission"}]}]}
